Assays:
APESV = test: Greenhouse trial: PO application (test methods 2 and 5); type: in vivo, Apera Spica-venti; conditions: g of AS/ha: (A) 120, (B) 1600, (C) 140, (A)+(B)+(C) 120 + 1600 + 140
Description: (§1) In the standard design of the test, seeds of various broad-leaved weed and weed grass biotypes (origins) were sown in a 8-13 cm diameter pot filled with natural soil of a standard field soil (loamy silt; non-sterile) and covered with a covering soil layer of about 1 cm. The pots were then cultivated in a greenhouse (12-16 h of light, temperature day 20-22° C., night 15-18° C.) until the time of application. The pots were treated on a laboratory track sprayer with spray liquors comprising the compositions according to the invention, mixtures of the prior art or components used individually. Application of the active compounds or active compound combinations formulated as WG, WP, EC or otherwise was carried out at the appropriate growth stages of the plants. The application rate for the spray application was 100-600 l of water/ha. After the treatment, the plants were returned to the greenhouses.
(§2) About 3 weeks after the application, the soil action or/and foliar action was assessed visually according to a scale of 0-100% in comparison to an untreated comparative group: 0%=no noticeable effect compared to the untreated comparative group; 100%=full effect compared to the untreated comparative group.
(notes: the term “seeds” also includes vegetative propagation forms such as, for example, rhizome pieces; abbreviations used: h light=hours of illumination, g of AS/ha=gram of active substance per hectare, I/ha=liter per hectare, S=sensitive, R=resistant) • 1. Pre-emergence action against weeds: seeds of various broad-leaved weed and weed grass biotypes (origins) were sown in a 8-13 cm diameter pot filled with natural soil of a standard field soil (loamy silt; non-sterile) and covered with a covering soil layer of about 1 cm. The pots were then cultivated in a greenhouse (12-16 h of light, temperature day 20-22° C., night 15-18° C.) until the time of application. […]

LOLPE [1] = test: Greenhouse trial: PE application with different irrigation variants (test method 7); type: in vivo, Lolium perenne; conditions: g of AS/ha: (A) 120, (B) 1200, (C) 140, (A)+(B)+(C) 120 + 1200 + 140
Description: as §1, §2
(§3) (notes: the term “seeds” also includes vegetative propagation forms such as, for example, rhizome pieces; abbreviations used: h light=hours of illumination, g of AS/ha=gram of active substance per hectare, I/ha=liter per hectare, S=sensitive, R=resistant) • 1. Pre-emergence action against weeds: seeds of various broad-leaved weed and weed grass biotypes (origins) were sown in a 8-13 cm diameter pot filled with natural soil of a standard field soil (loamy silt; non-sterile) and covered with a covering soil layer of about 1 cm. The pots were then cultivated in a greenhouse (12-16 h of light, temperature day 20-22° C., night 15-18° C.) until the time of application. The pots were treated at the BBCH stage 00-10 of the seeds/plants on a laboratory track sprayer with spray liquors comprising the compositions according to the invention, mixtures or components used individually, as WG, WP, EC or other formulations. The application rate for the spray application was 100-600 l of water/ha. After the treatment, the plants were returned to the greenhouses and, when required, treated with fertilizer and watered. • 2. Post-emergence action against weeds: seeds of various broad-leaved weed and weed grass biotypes (origins) were sown in a 8-13 cm diameter pot filled with natural soil of a standard field soil (loamy silt; non-sterile) and covered with a covering soil layer of about 1 cm. The pots were then cultivated in a greenhouse (12-16 h of light, temperature day 20-22° C., night 15-18° C.) until the time of application. The pots were treated at various BBCH stages between 11-25 of the seeds/plants, i.e. generally between two to three weeks after the start of the cultivation, on a laboratory track sprayer with spray liquors comprising the compositions according to the invention, mixtures or components used individually, as WG, WP, EC or other formulations. The application rate for the spray application was 100-600 l of water/ha. After the treatment, the plants were returned to the greenhouses and, when required, treated with fertilizer and watered. • 3. Pre-emergence action against weeds with and without incorporation of active compound: seeds of various broad-leaved weed and weed grass biotypes (origins) were sown in a 8-13 cm diameter pot filled with natural soil of a standard field soil (loamy silt; non-sterile). […]

LOLPE [2] = test: Greenhouse trial: PE application vs application 7 days prior to sowing (test method 6); type: in vivo, Lolium perenne
Description: as §1, §2, §3

MATCH = test: Greenhouse trial: different soil types (test method 8); type: in vivo, Matricaria chamomilla; conditions: g of AS/ha: (A) 120, (B) 1200, (C) 140, (A)+(B)+(C) 120 + 1200 + 140
Description: as §1, §2, §3

HORVS = test: Greenhouse trial: PO application (test methods 2 and 5); type: in vivo, Hordeum vulgare, summer barley; conditions: g of AS/ha: (A) 120, (B) 1600, (C) 140, (A)+(B)+(C) 120 + 1600 + 140
Description: as §1
About 3 weeks after the application, the soil action or/and foliar action was assessed visually according to a scale of 0-100% in comparison to an untreated comparative group: 0%=no noticeable effect compared to the untreated comparative group; 100%=full effect compared to the untreated comparative group. […]

AVEFA = test: Greenhouse trial: PE application with different irrigation variants (test method 7); type: in vivo, Avena fatua; conditions: g of AS/ha: (A) 120, (B) 1200, (C) 140, (A)+(B)+(C) 120 + 1200 + 140
Description: as §1, §2, §3

## CSc1nnc(C(C)(C)C)c(=O)n1N [(C) metribuzin, 4-amino-6-(1,1-dimethylethyl)-3-(methylthio)-1,2,4-triazon-5(4H)-one]
APESV
  activity APESV: 79%
LOLPE [1]; Irrigation from above
  activity LOLPE: 55%
LOLPE [1]; Irrigation from below
  activity LOLPE: 48%
LOLPE [2]; PE application, g of AS/ha: (A) 90, (B) 1200, (C) 140, mixture 90 + 1200 + 140
  activity LOLPE: 70%
LOLPE [2]; application 7 days prior to sowing, g of AS/ha: (A) 90, (B) 1200, (C) 140, (A)+(B)+(C) 90 + 1200 + 140
  activity LOLPE: 0%
MATCH; IU soil
  activity MATCH IU soil: 0%
MATCH; IU/EC73 soil vs IU soil
  Difference of the soil types Δ^D, MATCH: Δ^D + 5%
MATCH; IU/EC73 soil
  activity MATCH IU/EC73 soil: 15%
HORVS
  activity HORVS (crop plant): 70%
AVEFA; Irrigation from above
  activity AVEFA: 30%
AVEFA; Irrigation from below
  activity AVEFA: 30%
